Structures can show the parent of a compound that is named as a salt.

This assay can be described thus: 31P NMR evidence for guanidinium-phosphonate binding (addition of amphiphile or comparator to MePO3K2). The following applies: for change of the 31P signal of the phosphonate on addition (shift and broadening, in words): FIGS. 11A-D. The text has this: Guanidinium binds to phosphonate through a salt bridge that is buttressed by a bidentate hydrogen bonding system FIG. 10. This interaction is generally stable within a wide range of pH values. Thus, guanidinium-functionalized amphiphiles (29a-c) should form complexes with phosphonates in aqueous buffer. We show here the interaction between amphipile (29a) and MePO3K2 using ^31P NMR, FIGS. 11A-D, which has been used as a probe for phosphate binding to several types of cations. […] This broadening effect is more pronounced as additional compound (29a) is added. The change in the shape of the peak is consistent with reduced tumbling associated with increased size or reversible association of compound (29a) with MePO3K2, which indicates complexation between the guanidinium species and the phosphonate group. […] Thus, guanidinium compound (29a) is not merely protonating the phosphonate in FIG. 11A. […] Urea is structurally similar to guanidinium and can potentially complex a phosphonate in a manner similar to compound (29a) (FIG. 10). In the presence of HCl, similar chemical behavior is expected when MePO3K2 is treated with urea as when it is treated with compound 29.

As for `Cl` [HCl], the “change of the 31P signal of the phosphonate on addition (shift and broadening, in words)” value (from here on “change … (shift and broadening, in words)”) was “remains sharp and shifts downfield”. Under “MePO3K2 + 1 eq of additive”, the “31P Chemical shift of MePO3K2” value turned out to be 27.8 ppm and the “31P Half-Height Width of MePO3K2” value worked out at 3.8 Hz. Moreover, under “MePO3K2 + 2 eq of additive”, the “31P Chemical shift of MePO3K2” value is 29.9 ppm and the “31P Half-Height Width of MePO3K2” value came to 3.4 Hz. Besides, for the setting “MePO3K2 + 3 eq of additive”, the “31P Chemical shift of MePO3K2” value is listed as 30.4 ppm and the “31P Half-Height Width of MePO3K2” value is on record as 3.4 Hz. Moreover, for the setting “in the presence of HCl, FIG. 11B, equivalents not given”, the “31P chemical shift of protonated MePO3H2” value was 30.4 ppm.

For the compound `Cl.N` [NH4Cl], the “change … (shift and broadening, in words)” value is reported as “small downfield shift like HCl, but did not broaden the signal”. In addition, where the note is “MePO3K2 + 1 eq of additive”, the “31P Chemical shift of MePO3K2” value is 21.8 ppm and the “31P Half-Height Width of MePO3K2” value was 3.6 Hz. Besides, for the setting “MePO3K2 + 4 eq of additive”, the “31P Chemical shift of MePO3K2” value is 22.1 ppm and the “31P Half-Height Width of MePO3K2” value is on record as 4.2 Hz.

Turning to `NC(N)=O` [urea, Urea], the “change … (shift and broadening, in words)” value is recorded as “do not broaden”. Also, for the setting “MePO3K2 + 1 eq urea + 2 eq HCl”, the “31P Chemical shift of MePO3K2” value turned out to be 27.6 ppm and the “31P Half-Height Width of MePO3K2” value is 3.3 Hz. Also, for the setting “MePO3K2 + 4 eq urea + 2 eq HCl”, the “31P Chemical shift of MePO3K2” value was 27.7 ppm and the “31P Half-Height Width of MePO3K2” value is recorded as 3.6 Hz.

The values above are taken from US9273184B1, “Synthesis of highly fluorinated amines for use in polymers and biomaterials” (University of Southern California, priority 2009, dated 2016).
